SMILES strings stand for the structures.

Common to all, as to assay: Dundee kinase panel
What all share (type): biochemical
Holding throughout (conditions): for remaining activity at 1 µM: read-out: residual activity

One experiment has as its target T1, CLK2 (Homo sapiens, UniProt P49760).
T1 construct: lines 1-140) and Reaction Biology
The method, then:
(§1) Compounds were screened at 1 μM. For key hits, pIC50 values were then determined by HTRF as above. […] Stability in mouse and human liver microsomes was determined by Cyprotex.

In a further experiment the target is T2, EF2K (Homo sapiens, UniProt O00418).
T2 construct: lines 1-140) and Reaction Biology
T2 sequence (O00418 1-725): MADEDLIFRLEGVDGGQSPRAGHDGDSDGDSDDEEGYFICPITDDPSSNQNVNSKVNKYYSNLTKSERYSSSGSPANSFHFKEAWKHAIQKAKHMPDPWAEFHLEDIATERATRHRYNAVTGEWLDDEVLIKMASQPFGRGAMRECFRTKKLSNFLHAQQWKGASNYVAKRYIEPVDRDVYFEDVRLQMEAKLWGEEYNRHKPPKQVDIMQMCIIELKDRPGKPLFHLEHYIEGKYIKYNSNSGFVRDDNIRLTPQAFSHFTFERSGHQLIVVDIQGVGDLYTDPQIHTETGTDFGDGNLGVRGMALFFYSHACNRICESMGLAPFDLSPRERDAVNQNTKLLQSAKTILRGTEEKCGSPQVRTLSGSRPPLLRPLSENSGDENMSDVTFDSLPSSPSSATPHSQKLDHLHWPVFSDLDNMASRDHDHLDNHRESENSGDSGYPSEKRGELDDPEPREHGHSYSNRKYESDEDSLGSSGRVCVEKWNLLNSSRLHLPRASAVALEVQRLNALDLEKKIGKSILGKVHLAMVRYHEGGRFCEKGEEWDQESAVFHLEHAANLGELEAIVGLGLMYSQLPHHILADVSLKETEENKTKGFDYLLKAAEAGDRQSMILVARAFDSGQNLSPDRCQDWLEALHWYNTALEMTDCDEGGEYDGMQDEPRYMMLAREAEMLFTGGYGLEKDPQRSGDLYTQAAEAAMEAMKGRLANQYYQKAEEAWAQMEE
How it is done:
as §1

In the next experiment the target is T3, IKKb (Homo sapiens, UniProt O14920).
T3 construct: lines 1-140) and Reaction Biology
T3 sequence (O14920 1-756): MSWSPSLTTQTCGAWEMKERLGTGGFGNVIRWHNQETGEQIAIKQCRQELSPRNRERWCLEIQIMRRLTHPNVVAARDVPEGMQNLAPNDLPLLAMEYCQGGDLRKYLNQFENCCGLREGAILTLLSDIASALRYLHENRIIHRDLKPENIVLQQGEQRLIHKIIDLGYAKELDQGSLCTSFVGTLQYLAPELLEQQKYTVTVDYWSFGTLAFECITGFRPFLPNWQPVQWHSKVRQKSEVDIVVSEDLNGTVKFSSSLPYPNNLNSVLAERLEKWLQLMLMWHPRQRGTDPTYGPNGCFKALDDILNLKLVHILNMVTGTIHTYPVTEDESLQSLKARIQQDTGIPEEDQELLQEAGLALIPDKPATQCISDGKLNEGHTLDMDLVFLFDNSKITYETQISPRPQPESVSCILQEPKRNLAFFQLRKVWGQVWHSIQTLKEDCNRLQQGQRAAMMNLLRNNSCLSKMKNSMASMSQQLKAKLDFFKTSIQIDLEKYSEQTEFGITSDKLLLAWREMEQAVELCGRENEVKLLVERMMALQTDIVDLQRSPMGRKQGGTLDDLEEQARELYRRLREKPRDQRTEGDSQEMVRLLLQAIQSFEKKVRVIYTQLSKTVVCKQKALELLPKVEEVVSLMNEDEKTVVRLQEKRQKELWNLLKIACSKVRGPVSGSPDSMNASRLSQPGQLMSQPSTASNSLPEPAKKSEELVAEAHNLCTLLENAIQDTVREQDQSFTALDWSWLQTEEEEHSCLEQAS
The method, then:
as §1

The target in the next experiment is T4, JNK3 (Homo sapiens, UniProt P53779).
T4 construct: lines 1-140) and Reaction Biology
T4 sequence (P53779 whole entry): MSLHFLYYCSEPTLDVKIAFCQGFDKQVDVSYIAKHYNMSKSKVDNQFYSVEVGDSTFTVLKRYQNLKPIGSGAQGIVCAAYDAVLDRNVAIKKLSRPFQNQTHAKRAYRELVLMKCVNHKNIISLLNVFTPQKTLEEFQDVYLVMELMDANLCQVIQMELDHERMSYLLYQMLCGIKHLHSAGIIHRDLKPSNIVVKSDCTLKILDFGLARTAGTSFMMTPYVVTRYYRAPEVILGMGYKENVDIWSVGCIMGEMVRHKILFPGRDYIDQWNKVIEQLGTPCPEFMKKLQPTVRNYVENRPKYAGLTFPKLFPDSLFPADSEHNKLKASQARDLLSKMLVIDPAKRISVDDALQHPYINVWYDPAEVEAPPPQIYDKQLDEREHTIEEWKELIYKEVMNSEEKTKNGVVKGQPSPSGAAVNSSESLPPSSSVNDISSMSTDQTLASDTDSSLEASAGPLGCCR
How it is done:
as §1

Another experiment deals with T5, MLK3 (Homo sapiens, UniProt Q16584).
T5 construct: lines 1-140) and Reaction Biology
T5 sequence (Q16584 whole entry): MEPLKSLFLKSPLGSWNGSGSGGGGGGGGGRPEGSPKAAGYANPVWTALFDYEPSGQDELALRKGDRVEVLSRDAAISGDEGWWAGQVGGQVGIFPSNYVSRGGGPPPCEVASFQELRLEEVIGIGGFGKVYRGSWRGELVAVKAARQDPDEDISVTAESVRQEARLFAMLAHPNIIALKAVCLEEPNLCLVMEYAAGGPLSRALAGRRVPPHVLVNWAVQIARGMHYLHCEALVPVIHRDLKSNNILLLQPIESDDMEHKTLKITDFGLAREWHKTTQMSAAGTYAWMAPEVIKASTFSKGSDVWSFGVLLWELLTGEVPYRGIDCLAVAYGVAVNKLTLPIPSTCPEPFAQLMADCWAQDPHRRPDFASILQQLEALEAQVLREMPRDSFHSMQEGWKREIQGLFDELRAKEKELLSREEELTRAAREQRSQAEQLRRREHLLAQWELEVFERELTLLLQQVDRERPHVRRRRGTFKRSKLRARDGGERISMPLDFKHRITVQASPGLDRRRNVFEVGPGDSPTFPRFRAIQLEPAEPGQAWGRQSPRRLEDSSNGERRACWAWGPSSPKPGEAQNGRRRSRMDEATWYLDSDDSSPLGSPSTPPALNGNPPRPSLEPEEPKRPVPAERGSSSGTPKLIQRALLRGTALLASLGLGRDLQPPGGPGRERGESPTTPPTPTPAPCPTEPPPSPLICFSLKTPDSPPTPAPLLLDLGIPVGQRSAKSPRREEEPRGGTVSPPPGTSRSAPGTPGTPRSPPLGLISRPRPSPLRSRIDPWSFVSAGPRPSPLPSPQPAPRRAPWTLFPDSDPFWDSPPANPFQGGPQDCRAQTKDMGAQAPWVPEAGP
How it is done: as §1

The target of another experiment is T6, MST2 (Homo sapiens, UniProt Q13188).
T6 construct: lines 1-140) and Reaction Biology
T6 sequence (Q13188 1-491): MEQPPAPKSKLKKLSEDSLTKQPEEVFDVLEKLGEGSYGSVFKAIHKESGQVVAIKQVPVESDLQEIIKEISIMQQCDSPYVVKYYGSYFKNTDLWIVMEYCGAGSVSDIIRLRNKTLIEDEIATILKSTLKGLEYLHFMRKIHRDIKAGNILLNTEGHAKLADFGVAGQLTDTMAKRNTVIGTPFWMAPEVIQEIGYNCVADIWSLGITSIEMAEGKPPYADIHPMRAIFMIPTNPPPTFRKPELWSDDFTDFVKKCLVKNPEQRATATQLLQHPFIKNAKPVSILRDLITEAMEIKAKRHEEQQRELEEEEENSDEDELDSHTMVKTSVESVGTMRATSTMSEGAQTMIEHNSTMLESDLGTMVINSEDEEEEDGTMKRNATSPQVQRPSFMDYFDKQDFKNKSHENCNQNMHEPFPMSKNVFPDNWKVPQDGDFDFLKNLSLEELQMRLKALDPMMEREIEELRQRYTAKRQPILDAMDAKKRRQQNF
How it is done:
as §1

For another experiment, the target named is T7, PAK4 (Homo sapiens, UniProt O96013).
T7 construct: lines 1-140) and Reaction Biology
T7 sequence (O96013 whole entry): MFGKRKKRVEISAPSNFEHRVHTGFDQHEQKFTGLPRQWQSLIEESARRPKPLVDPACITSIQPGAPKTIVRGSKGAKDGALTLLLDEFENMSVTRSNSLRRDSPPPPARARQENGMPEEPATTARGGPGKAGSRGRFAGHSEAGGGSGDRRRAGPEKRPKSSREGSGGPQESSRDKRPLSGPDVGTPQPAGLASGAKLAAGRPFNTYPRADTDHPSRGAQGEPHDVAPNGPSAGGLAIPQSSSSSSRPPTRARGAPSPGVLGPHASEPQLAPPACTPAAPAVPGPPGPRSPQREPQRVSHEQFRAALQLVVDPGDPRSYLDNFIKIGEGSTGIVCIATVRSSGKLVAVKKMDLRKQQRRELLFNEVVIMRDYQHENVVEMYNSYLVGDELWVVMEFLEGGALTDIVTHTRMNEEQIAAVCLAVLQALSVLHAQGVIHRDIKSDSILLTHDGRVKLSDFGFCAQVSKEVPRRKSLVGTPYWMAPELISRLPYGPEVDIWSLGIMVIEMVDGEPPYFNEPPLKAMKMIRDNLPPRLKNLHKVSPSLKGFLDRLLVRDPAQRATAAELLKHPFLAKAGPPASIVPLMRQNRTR
The method, then: as §1

The next experiment addresses T8, PDK1 (Homo sapiens, UniProt O15530).
T8 construct: lines 1-140) and Reaction Biology
T8 sequence (O15530 1-556): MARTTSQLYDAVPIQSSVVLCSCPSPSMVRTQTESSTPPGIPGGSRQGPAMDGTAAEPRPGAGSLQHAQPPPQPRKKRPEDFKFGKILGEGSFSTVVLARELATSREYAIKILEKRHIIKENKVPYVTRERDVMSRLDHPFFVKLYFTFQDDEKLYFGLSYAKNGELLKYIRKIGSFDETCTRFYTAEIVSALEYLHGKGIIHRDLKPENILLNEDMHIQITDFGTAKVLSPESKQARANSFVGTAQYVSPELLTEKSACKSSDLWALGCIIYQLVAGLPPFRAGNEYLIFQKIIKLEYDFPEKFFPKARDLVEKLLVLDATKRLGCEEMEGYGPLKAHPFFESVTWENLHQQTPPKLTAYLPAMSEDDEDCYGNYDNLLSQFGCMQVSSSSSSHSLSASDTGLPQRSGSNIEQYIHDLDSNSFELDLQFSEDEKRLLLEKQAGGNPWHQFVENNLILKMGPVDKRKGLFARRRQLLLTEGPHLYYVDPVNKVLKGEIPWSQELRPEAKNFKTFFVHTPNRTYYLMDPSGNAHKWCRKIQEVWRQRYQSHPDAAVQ
How it is done:
as §1

Another experiment deals with T9, PRK2 (Homo sapiens, UniProt Q16513).
T9 construct: lines 1-140) and Reaction Biology
T9 sequence (Q16513 whole entry): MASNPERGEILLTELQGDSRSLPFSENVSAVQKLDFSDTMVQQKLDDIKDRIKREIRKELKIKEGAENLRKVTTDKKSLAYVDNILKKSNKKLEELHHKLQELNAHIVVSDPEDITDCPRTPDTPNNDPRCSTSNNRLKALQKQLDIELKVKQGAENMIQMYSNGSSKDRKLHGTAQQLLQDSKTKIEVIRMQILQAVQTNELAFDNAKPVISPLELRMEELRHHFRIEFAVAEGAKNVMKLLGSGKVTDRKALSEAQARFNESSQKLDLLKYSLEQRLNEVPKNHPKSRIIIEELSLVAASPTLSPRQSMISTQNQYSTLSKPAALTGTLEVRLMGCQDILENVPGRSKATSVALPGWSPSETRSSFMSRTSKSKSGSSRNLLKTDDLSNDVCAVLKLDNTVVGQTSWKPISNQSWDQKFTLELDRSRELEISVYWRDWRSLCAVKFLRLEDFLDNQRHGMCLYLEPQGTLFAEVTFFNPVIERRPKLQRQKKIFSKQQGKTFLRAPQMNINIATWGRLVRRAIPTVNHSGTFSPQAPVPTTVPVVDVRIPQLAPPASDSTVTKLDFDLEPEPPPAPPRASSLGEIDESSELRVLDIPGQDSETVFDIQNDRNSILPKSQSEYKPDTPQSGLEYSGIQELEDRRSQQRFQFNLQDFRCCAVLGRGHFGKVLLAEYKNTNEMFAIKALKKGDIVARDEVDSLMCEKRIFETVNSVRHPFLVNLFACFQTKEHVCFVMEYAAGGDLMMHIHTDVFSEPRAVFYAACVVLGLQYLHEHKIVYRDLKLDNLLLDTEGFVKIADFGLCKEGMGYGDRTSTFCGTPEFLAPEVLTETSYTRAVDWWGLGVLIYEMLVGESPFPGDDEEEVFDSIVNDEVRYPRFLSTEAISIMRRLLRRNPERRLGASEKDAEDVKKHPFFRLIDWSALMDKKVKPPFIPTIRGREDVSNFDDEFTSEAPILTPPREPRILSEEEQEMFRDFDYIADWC
The method, then:
as §1

T1 sequence (P49760 whole entry): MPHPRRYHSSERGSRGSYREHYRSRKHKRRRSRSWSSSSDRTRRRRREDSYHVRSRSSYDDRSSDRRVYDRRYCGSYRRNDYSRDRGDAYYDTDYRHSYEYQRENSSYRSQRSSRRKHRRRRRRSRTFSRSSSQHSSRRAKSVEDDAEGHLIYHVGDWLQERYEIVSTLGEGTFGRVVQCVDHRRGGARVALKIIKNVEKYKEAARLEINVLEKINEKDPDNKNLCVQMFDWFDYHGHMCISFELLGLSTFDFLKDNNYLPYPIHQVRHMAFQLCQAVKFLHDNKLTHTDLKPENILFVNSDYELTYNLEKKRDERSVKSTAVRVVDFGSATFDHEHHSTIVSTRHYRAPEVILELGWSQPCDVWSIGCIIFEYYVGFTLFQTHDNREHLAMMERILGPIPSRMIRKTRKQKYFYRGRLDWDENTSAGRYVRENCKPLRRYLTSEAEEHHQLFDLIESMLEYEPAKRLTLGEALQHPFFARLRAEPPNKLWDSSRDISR

In the case of `Oc1ncnc2c1c(-c1ccccc1)cn2-c1ccccc1` [F1386-0303, 5,7-diphenyl-7H-pyrrolo[2,3-d]pyrimidin-4-ol], the remaining activity at 1 µM on CLK2 stood at 94%; on EF2K it was 99%; at IKKb, 102%; on JNK3, 92%; at MLK3, 30%; on MST2, 63%. Further, the remaining activity at 1 µM on PAK4 stood at 105%; at PDK1, 103%; on PRK2, 111%.

Turning to `O=C1Cc2c([nH]c3ccc(Br)cc23)-c2ccccc2N1` [Kenpaullone], the remaining activity at 1 µM turned out to be 109% at CLK2; 97% at EF2K; 103% on IKKb; 87% on JNK3; 21% at MLK3; 63% at MST2. The results for the remaining activity at 1 µM at PAK4, on PDK1 and on PRK2 were 104%, 64% and 57%, respectively.

As to `COCCOc1ccc(-c2cn(-c3ccccc3)c3nc[nH]c(=O)c23)cc1` [DMX-5804, 5-[4-(2-methoxy-ethoxy)-phenyl]-7-phenyl-3,7-dihydro-pyrrolo[2,3-d]pyrimidin-4-one], the remaining activity at 1 µM on CLK2 came out at 73%; at EF2K, 104%; on IKKb it was 107%; at JNK3 it was 127%; at MLK3, 12%; at MST2, 46%. For the same molecule, the remaining activity at 1 µM is 100% on PAK4, 89% at PDK1 and 90% at PRK2.

As to `O=C1Nc2ccc(I)cc2/C1=C/c1cc(Br)c(O)c(Br)c1` [GW5074], the remaining activity at 1 µM at CLK2 is 53%; on EF2K it was 57%; at IKKb, 73%; at JNK3, 65%; on MLK3, 17%; at MST2 it was 93%. The remaining activity at 1 µM was determined as 94% at PAK4, 22% on PDK1 and 68% at PRK2.

As for `Nc1ncc(C(=O)NC2CN(C(=O)C3CC3)C2)c2ccc(-c3cccc(F)c3)nc12` [GNE-495], the residual activity on CLK2 (1 μM) came out at 87%; on EF2K (1 μM), 120%; on IKKb (1 μM) it was 88%; at JNK3 (1 μM) it was 73%; on MLK3 (1 μM), 38%; on MST2 (1 μM) it was 76%. Besides, the residual activity came out at 28% at PAK4 (1 μM), 90% on PDK1 (1 μM) and 85% at PRK2 (1 μM).

Values taken from publication PMC6458995, “MAP4K4 Inhibition Promotes Survival of Human Stem Cell-Derived Cardiomyocytes and Reduces Infarct Size In Vivo” (Cell Stem Cell, 2019).
